Consider 13 compounds from ChEMBL document CHEMBL3045253, “Synthesis and in vitro antiproliferative activity of diphenyl(sulphonylpiperidin-4-yl)methanol derivatives” (Med Chem Res, 2010).

For one series, the system named is HeLa. Kind of series: Cytotoxicity against Homo sapiens (human) HeLa cells assessed as survival at 100 uM after 24 hr by MTT assay relative to control. The series is classed as functional. To be noted: read-out: Survival.
A further series has as its system HepG2. Kind of series: Cytotoxicity against Homo sapiens (human) HepG2 cells assessed as survival at 100 uM after 24 hr by MTT assay relative to control. Format: functional. To be noted: HepG2, 24 h, read-out: Survival.
Another series concerns HT-29. Kind of series: Cytotoxicity against Homo sapiens (human) HT-29 cells assessed as survival at 100 uM after 24 hr by MTT assay relative to control. Format: functional. To be noted: HT-29, 24 h, read-out: Survival. Background: Tetrazolium dyes change colour on reduction, which living cells bring about.
A further series concerns MCF7. Briefly: Cytotoxicity against Homo sapiens (human) MCF7 cells assessed as survival at 100 uM after 24 hr by MTT assay relative to control. The series is classed as functional. To be noted: MCF7, 24 h, read-out: Survival.
A short description of series [1]: Cytotoxicity against Homo sapiens (human) NF103 cells assessed as survival at 100 uM after 24 hr by MTT assay relative to control. Format: cell-based. To be noted: read-out: Survival.

Molecules are shown by their SMILES.

For `O=S(=O)(CCl)N1CCC(C(O)(c2ccccc2)c2ccccc2)CC1`, the viability at 100 µM with HeLa worked out at 56.1%; in the series with HepG2, 59.1%; in the series on HT-29 it was 45.2%; in the series with MCF7, 66%. Moreover, in series [1], the viability at 24 h, 100 µM amounted to 53.5%.

For the compound `O=S(=O)(c1ccc(Cl)cc1F)N1CCC(C(O)(c2ccccc2)c2ccccc2)CC1`, the viability at 100 µM came out at 39.2% in the series with HeLa, 46.3% with HepG2, 47.2% with HT-29 and 44.2% in the series with MCF7. The viability at 24 h, 100 µM in series [1] amounted to 51.8%.

With `CC(C)S(=O)(=O)N1CCC(C(O)(c2ccccc2)c2ccccc2)CC1`, the viability at 100 µM in the series on HeLa was 78.5%; in the series on HepG2 it was 64.7%; in the series with HT-29, 77.6%; in the series on MCF7, 70.5%. For the same compound, in series [1], the viability at 24 h, 100 µM stood at 60%.

For the compound `CS(=O)(=O)N1CCC(C(O)(c2ccccc2)c2ccccc2)CC1`, the viability at 100 µM in the series on HeLa stood at 64.4%; in the series on HepG2, 60.9%; with HT-29, 74.7%; in the series with MCF7, 60.5%. Besides, the viability at 24 h, 100 µM in series [1] turned out to be 64%.

On to `Cc1ccc(S(=O)(=O)N2CCC(C(O)(c3ccccc3)c3ccccc3)CC2)cc1`, for which the viability at 100 µM with HeLa was determined as 71.2%; with HepG2, 62.7%; in the series with HT-29 it was 45.1%; in the series on MCF7, 70.2%. In addition, in series [1], the viability at 24 h, 100 µM was 65.6%.

For `O=[N+]([O-])c1ccc(S(=O)(=O)N2CCC(C(O)(c3ccccc3)c3ccccc3)CC2)cc1`, the viability at 100 µM with HeLa amounted to 54%; with HepG2 it was 68.7%; with HT-29 it was 70.8%; in the series on MCF7, 69.8%. Also, the viability at 24 h, 100 µM in series [1] stood at 53.6%.

`O=[N+]([O-])c1ccccc1S(=O)(=O)N1CCC(C(O)(c2ccccc2)c2ccccc2)CC1`: the viability at 100 µM in the series with HeLa came out at 64.3%; with HepG2, 57.2%; with HT-29 it was 78.5%; with MCF7, 73.8%. For the same compound, the viability at 24 h, 100 µM in series [1] was found to be 63.4%.

As for `O=S(=O)(c1ccccc1)N1CCC(C(O)(c2ccccc2)c2ccccc2)CC1`, the viability at 100 µM in the series on HeLa came to 68.3%; in the series on HepG2, 68.3%; with HT-29 it was 73.9%; in the series on MCF7, 65.8%. Besides, in series [1], the viability at 24 h, 100 µM stood at 63%.

In the case of `O=S(=O)(c1ccc(Cl)cc1)N1CCC(C(O)(c2ccccc2)c2ccccc2)CC1`, the viability at 100 µM in the series on HeLa was 49.7%; with HepG2 it was 52.2%; in the series on HT-29 it was 69.6%; with MCF7, 61.4%. In series [1], the viability at 24 h, 100 µM was found to be 53%.

As for `O=S(=O)(Cc1ccccc1)N1CCC(C(O)(c2ccccc2)c2ccccc2)CC1`, the viability at 100 µM in the series on HeLa came to 70.1%; in the series on HepG2 it was 39.1%; in the series on HT-29 it was 76.5%; with MCF7, 69.7%. Further, in series [1], the viability at 24 h, 100 µM was 59.8%.

Consider `O=[N+]([O-])c1cccc(S(=O)(=O)N2CCC(C(O)(c3ccccc3)c3ccccc3)CC2)c1`, for which the viability at 100 µM came to 70.3% in the series with HeLa, 64.2% in the series on HepG2, 75% in the series with HT-29 and 63.4% with MCF7. Also, in series [1], the viability at 24 h, 100 µM was 57.4%.

For `Cc1noc(C)c1S(=O)(=O)N1CCC(C(O)(c2ccccc2)c2ccccc2)CC1`, the viability at 100 µM in the series on HeLa came to 39.9%; with HepG2 it was 52.2%; with HT-29, 73.6%; in the series on MCF7 it was 38.7%. In addition, the viability at 24 h, 100 µM in series [1] was 53.8%.

`CCCc1ccc(S(=O)(=O)N2CCC(C(O)(c3ccccc3)c3ccccc3)CC2)cc1`: the viability at 100 µM with HeLa was determined as 73.1%; with HepG2 it was 62.6%; in the series with HT-29, 74.2%; in the series with MCF7, 68.7%. Also, the viability at 24 h, 100 µM in series [1] stood at 60%.
